Measured values published in ChEMBL document CHEMBL5126554, “Occurrence, synthesis and biological activity of 2-(2-phenyethyl)chromones” (Eur J Med Chem, 2022).

How the values were obtained:
[1] = target: cGMP-specific 3',5'-cyclic phosphodiesterase (Homo sapiens, UniProt O76074); assay: Inhibition of human recombinant PDE5A1 using FAM-cGMP as substrate incubated for 60 mins by fluorescence polarization method
[2] = target: cGMP-inhibited 3',5'-cyclic phosphodiesterase 3A (Homo sapiens, UniProt Q14432); assay: Inhibition of human recombinant PDE3A using FAM-cAMP as substrate incubated for 60 mins by fluorescence polarization method
Sequence of cGMP-inhibited 3',5'-cyclic phosphodiesterase 3A (Q14432 whole entry): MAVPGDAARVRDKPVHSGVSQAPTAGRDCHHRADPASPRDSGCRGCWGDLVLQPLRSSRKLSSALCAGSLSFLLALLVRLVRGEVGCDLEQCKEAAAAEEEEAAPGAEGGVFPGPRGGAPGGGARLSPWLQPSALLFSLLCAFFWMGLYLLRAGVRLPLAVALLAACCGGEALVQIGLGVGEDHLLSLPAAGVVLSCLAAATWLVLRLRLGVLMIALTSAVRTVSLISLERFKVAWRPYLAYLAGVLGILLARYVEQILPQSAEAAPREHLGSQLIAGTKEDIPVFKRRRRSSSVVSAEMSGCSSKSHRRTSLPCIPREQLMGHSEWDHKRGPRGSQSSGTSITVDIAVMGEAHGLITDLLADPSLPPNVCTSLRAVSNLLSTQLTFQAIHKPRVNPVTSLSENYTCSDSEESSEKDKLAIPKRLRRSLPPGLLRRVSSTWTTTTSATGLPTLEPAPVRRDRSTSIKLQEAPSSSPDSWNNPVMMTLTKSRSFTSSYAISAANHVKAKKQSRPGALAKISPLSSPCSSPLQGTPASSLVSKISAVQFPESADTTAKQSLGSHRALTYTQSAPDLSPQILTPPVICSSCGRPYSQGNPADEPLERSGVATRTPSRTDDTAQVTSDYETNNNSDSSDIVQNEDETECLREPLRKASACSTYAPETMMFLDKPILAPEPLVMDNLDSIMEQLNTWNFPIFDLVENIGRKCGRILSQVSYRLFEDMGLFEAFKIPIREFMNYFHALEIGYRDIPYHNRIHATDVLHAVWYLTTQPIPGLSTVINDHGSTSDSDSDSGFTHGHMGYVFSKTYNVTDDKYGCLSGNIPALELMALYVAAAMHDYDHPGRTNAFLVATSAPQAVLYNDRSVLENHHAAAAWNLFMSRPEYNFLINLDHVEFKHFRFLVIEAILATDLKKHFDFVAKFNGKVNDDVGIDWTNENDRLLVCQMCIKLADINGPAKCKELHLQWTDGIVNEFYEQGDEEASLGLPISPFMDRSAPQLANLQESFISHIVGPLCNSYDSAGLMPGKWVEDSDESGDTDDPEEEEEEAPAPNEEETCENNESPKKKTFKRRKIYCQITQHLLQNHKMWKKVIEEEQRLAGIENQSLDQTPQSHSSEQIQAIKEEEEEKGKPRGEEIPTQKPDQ

K562 = assay: Cytotoxicity against human K562 cells; format: functional, cell-based
SGC-7901 = assay: Cytotoxicity against human SGC-7901 cells; format: functional, cell-based
Bel-7402 = assay: Cytotoxicity against human Bel-7402 cells; format: functional, cell-based
Staphylococcus aureus = assay: Antibacterial activity against methicillin-resistant Staphylococcus aureus assessed as inhibition of bacterial growth incubated for 24 hrs by broth microdilution assay; format: functional, organism-based
Acetylcholinesterase [3] = target: T1, Acetylcholinesterase (Homo sapiens, UniProt P22303); assay: Inhibition of AChE (unknown origin) by spectrophotometric based Ellman's method
T1 sequence (P22303 whole entry): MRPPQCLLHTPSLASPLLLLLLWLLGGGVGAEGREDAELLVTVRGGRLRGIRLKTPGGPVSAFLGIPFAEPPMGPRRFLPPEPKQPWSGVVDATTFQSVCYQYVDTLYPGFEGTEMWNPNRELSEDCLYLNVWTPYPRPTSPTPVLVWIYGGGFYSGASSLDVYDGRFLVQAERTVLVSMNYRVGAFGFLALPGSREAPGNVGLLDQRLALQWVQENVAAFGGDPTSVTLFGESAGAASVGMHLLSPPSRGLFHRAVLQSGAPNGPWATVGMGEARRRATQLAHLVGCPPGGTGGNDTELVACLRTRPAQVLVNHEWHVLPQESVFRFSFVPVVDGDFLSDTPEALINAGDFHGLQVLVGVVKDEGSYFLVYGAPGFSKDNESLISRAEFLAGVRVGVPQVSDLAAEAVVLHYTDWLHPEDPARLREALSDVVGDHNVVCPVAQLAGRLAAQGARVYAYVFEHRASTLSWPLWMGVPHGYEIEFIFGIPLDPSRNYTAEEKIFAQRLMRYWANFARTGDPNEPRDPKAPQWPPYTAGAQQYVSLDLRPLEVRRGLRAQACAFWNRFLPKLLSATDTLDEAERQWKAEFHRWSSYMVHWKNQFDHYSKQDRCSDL

RAW264.7 = assay: Inhibition of NO production in LPS stimulated mouse RAW264.7 cells by Griess reagent based analysis; format: functional, cell-based
HeLa = assay: Cytotoxicity against human HeLa cells; format: functional, cell-based
A549 [4] = assay: Cytotoxicity against human A549 cells; format: functional, cell-based
[5] = Antioxidant activity assessed as inhibition of DPPH radical scavenging activity by measuring reduction in absorbance at 100 uM by spectrophotometric analysis relative to control; format: functional
Acetylcholinesterase [6] = target: T1, Acetylcholinesterase; settings: dose 50.0 mg/ml, time 1.0 hrs
A549 [7] = assay: Cytotoxicity against human A549 cells by MTT assay; format: functional, cell-based
[8] = target: Nuclear factor NF-kappa-B complex (Homo sapiens) (UniProt Q00653+P19838+Q04206); assay: Inhibition of LPS induced NF-kappaB activation (unknown origin) assessed as relative luciferase activity; format: protein-complex assay
Sequence of Nuclear factor NF-kappa-B complex (Homo sapiens) (P19838 whole entry, looked up): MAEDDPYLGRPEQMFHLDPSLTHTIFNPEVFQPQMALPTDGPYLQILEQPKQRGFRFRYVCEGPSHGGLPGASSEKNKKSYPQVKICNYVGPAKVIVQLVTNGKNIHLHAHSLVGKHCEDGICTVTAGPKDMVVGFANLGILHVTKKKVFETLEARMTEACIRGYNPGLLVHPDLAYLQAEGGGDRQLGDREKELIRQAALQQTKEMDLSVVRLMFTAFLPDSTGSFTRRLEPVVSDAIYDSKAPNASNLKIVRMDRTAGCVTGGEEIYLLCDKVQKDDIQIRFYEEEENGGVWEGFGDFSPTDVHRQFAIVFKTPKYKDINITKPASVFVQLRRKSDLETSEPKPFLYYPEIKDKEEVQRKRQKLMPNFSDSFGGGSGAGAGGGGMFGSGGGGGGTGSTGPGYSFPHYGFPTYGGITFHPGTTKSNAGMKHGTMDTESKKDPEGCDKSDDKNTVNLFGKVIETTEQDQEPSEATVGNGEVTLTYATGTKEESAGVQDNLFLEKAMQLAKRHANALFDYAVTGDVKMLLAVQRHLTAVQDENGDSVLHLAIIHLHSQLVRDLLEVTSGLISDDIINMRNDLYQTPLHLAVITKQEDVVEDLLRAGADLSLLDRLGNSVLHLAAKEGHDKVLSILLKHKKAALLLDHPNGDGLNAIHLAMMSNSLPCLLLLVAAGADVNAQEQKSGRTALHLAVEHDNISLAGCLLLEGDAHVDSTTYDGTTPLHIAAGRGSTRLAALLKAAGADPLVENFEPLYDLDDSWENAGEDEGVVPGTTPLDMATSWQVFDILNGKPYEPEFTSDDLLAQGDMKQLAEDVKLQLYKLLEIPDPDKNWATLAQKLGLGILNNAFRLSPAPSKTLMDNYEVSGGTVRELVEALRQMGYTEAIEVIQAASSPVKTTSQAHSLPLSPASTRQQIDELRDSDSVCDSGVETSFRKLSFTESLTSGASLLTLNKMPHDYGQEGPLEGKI
Sequence of Nuclear factor NF-kappa-B complex (Homo sapiens) (Q00653 whole entry, looked up): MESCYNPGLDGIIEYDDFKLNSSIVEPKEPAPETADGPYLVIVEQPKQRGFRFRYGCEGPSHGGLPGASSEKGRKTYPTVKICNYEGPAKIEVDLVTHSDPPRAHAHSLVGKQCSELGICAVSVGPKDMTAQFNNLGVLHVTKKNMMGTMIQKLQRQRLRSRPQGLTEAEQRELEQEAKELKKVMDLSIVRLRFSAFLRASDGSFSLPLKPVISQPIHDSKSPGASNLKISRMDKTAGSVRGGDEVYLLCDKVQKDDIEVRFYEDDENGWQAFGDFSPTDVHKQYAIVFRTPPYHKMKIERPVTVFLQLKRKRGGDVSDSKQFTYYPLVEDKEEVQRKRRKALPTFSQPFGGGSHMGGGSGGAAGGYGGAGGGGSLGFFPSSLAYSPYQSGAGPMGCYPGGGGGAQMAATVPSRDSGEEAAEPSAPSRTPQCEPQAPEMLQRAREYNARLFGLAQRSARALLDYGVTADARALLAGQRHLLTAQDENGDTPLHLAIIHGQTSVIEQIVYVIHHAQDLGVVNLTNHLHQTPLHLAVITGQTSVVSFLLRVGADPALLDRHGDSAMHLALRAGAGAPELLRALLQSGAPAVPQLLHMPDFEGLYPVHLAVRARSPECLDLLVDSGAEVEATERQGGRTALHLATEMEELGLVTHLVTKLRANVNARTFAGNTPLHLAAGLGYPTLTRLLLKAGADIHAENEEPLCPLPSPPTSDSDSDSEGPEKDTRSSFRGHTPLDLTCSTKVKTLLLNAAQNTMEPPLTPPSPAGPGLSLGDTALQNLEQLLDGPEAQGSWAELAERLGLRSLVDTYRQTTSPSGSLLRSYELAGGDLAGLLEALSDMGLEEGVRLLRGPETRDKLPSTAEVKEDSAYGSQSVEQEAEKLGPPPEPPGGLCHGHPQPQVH
Sequence of Nuclear factor NF-kappa-B complex (Homo sapiens) (Q04206 whole entry, looked up): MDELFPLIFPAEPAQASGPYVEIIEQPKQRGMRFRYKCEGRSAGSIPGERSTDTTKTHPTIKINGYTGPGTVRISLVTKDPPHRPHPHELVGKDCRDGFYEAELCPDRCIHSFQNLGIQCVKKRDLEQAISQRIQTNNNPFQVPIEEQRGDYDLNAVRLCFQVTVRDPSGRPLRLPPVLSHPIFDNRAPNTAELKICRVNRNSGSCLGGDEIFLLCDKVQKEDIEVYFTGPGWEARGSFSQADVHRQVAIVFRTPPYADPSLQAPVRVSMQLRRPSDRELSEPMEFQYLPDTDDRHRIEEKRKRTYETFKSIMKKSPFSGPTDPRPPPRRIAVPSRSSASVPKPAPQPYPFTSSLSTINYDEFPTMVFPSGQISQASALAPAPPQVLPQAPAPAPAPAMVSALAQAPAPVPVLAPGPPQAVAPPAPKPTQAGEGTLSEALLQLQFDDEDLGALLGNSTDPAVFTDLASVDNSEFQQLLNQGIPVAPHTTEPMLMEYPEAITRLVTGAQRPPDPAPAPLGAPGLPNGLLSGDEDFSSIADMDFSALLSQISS

Mushroom tyrosinase = Mushroom tyrosinase (Agaricus bisporus, UniProt O42713+Q00024+C7FF04+C7FF05); assay: Inhibition of mushroom tyrosinase activity using L-tyrosine as substrate preincubated for 5 mins followed by substrate addition and measured after 20 mins by microplate reader analysis

Question: For O=C(CCc1ccccc1)O[C@@H]1c2oc(CCc3ccccc3)cc(=O)c2[C@H](O)[C@@H](O)[C@H]1O, which IC50 [1] is on record?
Answer: 15.1 µM

Question: What about the IC50 [2] of the same molecule?
Answer: 42.6 µM

Question: Which IC50 (K562) does the source give for COc1ccc(CCc2cc(=O)c3cc(O)c(O)cc3o2)cc1 here?
Answer: 5.76 µM

Question: And the IC50 (SGC-7901)?
Answer: 5.76 µM

Question: And the IC50 (Bel-7402)?
Answer: 5.76 µM

Question: Which IC50 (Staphylococcus aureus) does the source give for O=c1cc(CCc2ccccc2)oc2c(O)cc(O)cc12 here?
Answer: 220 µM

Question: Which IC50 (Acetylcholinesterase [3]) does the source give for COc1ccc(CCc2cc(=O)c3c(o2)[C@H]2O[C@H]2[C@@H](O)[C@H]3OC)cc1O here?
Answer: 442 µM

Question: Which IC50 (RAW264.7) does the source give for O=c1cc(CCc2ccccc2)oc2c1[C@H](O)[C@H](O)[C@H](O)[C@H]2Cl here?
Answer: 1600 nM

Question: What does the source list for O=c1cc(CCc2ccccc2)oc2c1[C@H]1c3c(ccc4oc(CCc5ccccc5)cc(=O)c34)O[C@H]([C@H]1O)[C@@H]2O?
Answer: IC50 (K562): 10.9 µM; IC50 (SGC-7901): 10.9 µM; IC50 (HeLa): 10.9 µM; IC50 (A549 [4]): 10.9 µM

Question: With COc1ccc(CCc2cc(=O)c3c(o2)[C@@H](O)[C@H](O)[C@@H]2O[C@H]32)cc1 as the molecule, how does the IC50 (RAW264.7) read?
Answer: 1600 nM

Question: With COc1cc(C[C@@H](O)c2cc(=O)c3c(O)cc(O)cc3o2)ccc1O as the molecule, how does the inhibition [5] read?
Answer: 56.1%

Question: Which inhibition (Acetylcholinesterase [6]) does the source give for O=c1cc(CCc2ccccc2)oc2c1[C@H](O)[C@@H](O)[C@H]1O[C@@H]21 here?
Answer: 17.5%

Question: With COc1ccc(CCc2cc(=O)c3c(o2)[C@@H](O)[C@H](O)[C@H](O)[C@H]3OC)cc1 as the molecule, how does the inhibition (Acetylcholinesterase [6]) read?
Answer: 17.5%

Question: Which IC50 (A549 [7]) does the source give for C/C1=C\CC/C(C(=O)O[C@@H]2c3oc(CCc4ccccc4)cc(=O)c3[C@H](O)[C@@H](O)[C@H]2O)=C/CC(C)(C)/C=C/C1 here?
Answer: 17.6 µM

Question: With COc1ccc(CCc2cc(=O)c3c(o2)[C@H](O)[C@H]2Oc4cc5oc(CCc6ccc(OC)cc6)cc(=O)c5cc4O[C@@H]3[C@H]2O)cc1 as the molecule, how does the IC50 (Bel-7402) read?
Answer: 42.1 µM

Question: With COc1ccc(CCc2cc(=O)c3c(o2)[C@@H](Oc2cc(O)cc4c(=O)cc(CCc5ccccc5)oc24)[C@H](O)[C@H](O)[C@H]3O)cc1 as the molecule, how does the IC50 [1] read?
Answer: 7.9 µM

Question: Which IC50 (Staphylococcus aureus) does the source give for COc1ccc(CCc2cc(=O)c3c(O)ccc(OC)c3o2)cc1 here?
Answer: 220 µM

Question: For COc1ccc(CCc2cc(=O)c3c(o2)[C@H]2O[C@H]2[C@@H](O)[C@@H]3O)cc1, which inhibition (Acetylcholinesterase [6]) is on record?
Answer: 17.5%

Question: Which results are given for C=C(CO[C@H]1c2c(oc(CCc3ccc(OC)cc3)cc2=O)[C@H]2O[C@H]2[C@H]1O)[C@@H]1CC[C@]2(C)CCC[C@H](C)[C@@]2(C)C1?
Answer: IC50 (K562): 10.9 µM; IC50 (SGC-7901): 10.9 µM; IC50 (HeLa): 10.9 µM; IC50 (A549 [4]): 10.9 µM

Question: With COc1ccc(CCc2cc(=O)c3c(o2)[C@@H]2O[C@@H]2[C@@H]2O[C@H]32)cc1O as the molecule, how does the inhibition (Acetylcholinesterase [6]) read?
Answer: 17.5%

Question: Which IC50 (K562) does the source give for O=c1cc(CCc2ccccc2)oc2c1[C@@H]1c3c(ccc4oc(CCc5ccccc5)cc(=O)c34)O[C@@H]([C@@H]1O)[C@H]2O here?
Answer: 10.9 µM

Question: And the IC50 (SGC-7901)?
Answer: 10.9 µM

Question: And the IC50 (HeLa)?
Answer: 10.9 µM

Question: What about the IC50 (A549 [4]) of the same molecule?
Answer: 10.9 µM

Question: For COc1ccc(CCc2cc(=O)c3cc(OC)c(O)cc3o2)cc1, which IC50 (Staphylococcus aureus) is on record?
Answer: 220 µM

Question: Which inhibition [5] does the source give for O=c1cc(CCc2ccc(O)cc2)oc2cc(O)cc(O)c12 here?
Answer: 56.1%

Question: With COc1ccc(CCc2cc(=O)c3cc4c(cc3o2)O[C@H]2c3c(oc(CCc5ccccc5)cc3=O)[C@H](O)[C@@H](O4)[C@@H]2O)cc1 as the molecule, how does the IC50 (Bel-7402) read?
Answer: 44.7 µM

Question: Which IC [8] does the source give for COc1cc2oc(CCc3ccccc3)cc(=O)c2cc1O here?
Answer: 0.31 µM

Question: With COc1ccc(CCc2cc(=O)c3cc(O)cc(O)c3o2)cc1 as the molecule, how does the IC50 (Mushroom tyrosinase) read?
Answer: 51.5 µM

Question: With O=c1cc(CCc2ccccc2)oc2cc(O)c(O)cc12 as the molecule, how does the IC50 (K562) read?
Answer: 5.76 µM

Question: And the IC50 (SGC-7901)?
Answer: 5.76 µM

Question: What about the IC50 (Bel-7402) of the same molecule?
Answer: 5.76 µM

Question: Which inhibition [5] does the source give for O=c1cc(CCc2ccc(O)c(O)c2)oc2cc(O)cc(O)c12 here?
Answer: 91.2%

Question: Which IC50 (K562) does the source give for COc1ccc(CCc2cc(=O)c3cc(O)c(OC)cc3o2)cc1 here?
Answer: 5.76 µM

Question: And the IC50 (SGC-7901)?
Answer: 5.76 µM

Question: What about the IC50 (Bel-7402) of the same molecule?
Answer: 5.76 µM

Question: With COc1ccc(CCc2cc(=O)c3c(o2)[C@H](Cl)[C@H](O)[C@H](O)[C@@H]3O)cc1 as the molecule, how does the IC50 (RAW264.7) read?
Answer: 1600 nM

Question: Which IC [8] does the source give for COc1ccc(CCc2cc(=O)c3cc(OC)c(OC)cc3o2)cc1 here?
Answer: 0.31 µM

Question: For COc1ccc(CCc2cc(=O)c3c(o2)[C@H]2O[C@H]2[C@@H](O)[C@@H]3O)cc1O, which inhibition (Acetylcholinesterase [6]) is on record?
Answer: 17.5%

Question: Which IC50 (Mushroom tyrosinase) does the source give for COc1ccc(CCc2cc(=O)c3cc(O)c(OC)cc3o2)cc1O here?
Answer: 89 µM

Question: Which IC50 (Acetylcholinesterase [3]) does the source give for COc1ccc(CCc2cc(=O)c3c(o2)[C@H]2O[C@H]2[C@@H](O)[C@H]3OC)cc1 here?
Answer: 156 µM

Question: For O=c1cc(CCc2ccccc2)oc2c1[C@H](O)[C@@H](O)[C@@H](O)[C@@H]2Oc1cc2oc(CCc3ccccc3)cc(=O)c2cc1O, which IC50 [1] is on record?
Answer: 4.2 µM

Question: Which IC [8] does the source give for COc1ccc(CCc2cc(=O)c3c(O)c(O)ccc3o2)cc1O here?
Answer: 0.31 µM

Question: For CO[C@@H]1c2c(oc(CCc3ccccc3)cc2=O)[C@H](O)[C@@H](O)[C@H]1O, which inhibition (Acetylcholinesterase [6]) is on record?
Answer: 17.5%

Question: For C=C(C)[C@H]1CC[C@@]2(C)CCCC(C(=O)O[C@H]3c4oc(CCc5ccccc5)cc(=O)c4[C@@H](O)[C@H](O)[C@@H]3O)=C2C1, which IC50 (A549 [7]) is on record?
Answer: 17.6 µM

Question: With CCCOC(=O)c1cc(O)c(O)c(O)c1 as the molecule, how does the inhibition [5] read?
Answer: 97.4%

Question: What does the source list for O=c1cc(CCc2ccccc2)oc2c(O)ccc(O)c12?
Answer: IC50 (RAW264.7): 1600 nM; IC50 (Staphylococcus aureus): 220 µM

Question: Which IC [8] does the source give for COc1ccc2c(=O)cc(CCc3ccccc3)oc2c1 here?
Answer: 0.31 µM

Question: Which inhibition [5] does the source give for O=c1cc(CCc2ccc(O)cc2)oc2cc(OC3O[C@H](CO)[C@@H](O)[C@H](O)[C@H]3O)cc(O)c12 (stereo partly drawn) here?
Answer: 56.1%

Question: For C=C(CO[C@H]1c2c(oc(CCc3ccccc3)cc2=O)[C@H]2O[C@H]2[C@H]1O)[C@@H]1CC[C@@]2(O)CCCC[C@@]2(C)C1, which IC50 (K562) is on record?
Answer: 10.9 µM

Question: What about the IC50 (SGC-7901) of the same molecule?
Answer: 10.9 µM

Question: What about the IC50 (HeLa) of the same molecule?
Answer: 10.9 µM

Question: And the IC50 (A549 [4])?
Answer: 10.9 µM

Question: With C=C(C)[C@H]1CC[C@@]2(C)CCC=C(C(=O)O[C@H]3c4oc(CCc5ccccc5)cc(=O)c4[C@@H](O)[C@H](O)[C@@H]3O)[C@H]2C1 as the molecule, how does the IC50 (A549 [7]) read?
Answer: 17.6 µM

Question: For COc1ccc(CCc2cc(=O)c3c(o2)[C@H](Cl)[C@@H](O)[C@@H](O)[C@H]3O)cc1, which IC50 (RAW264.7) is on record?
Answer: 1600 nM

Question: For COc1ccc(CCc2cc(=O)c3cc(O)c(O[C@@H]4c5oc(CCc6ccccc6)cc(=O)c5[C@H](O)[C@@H](O)[C@H]4O)cc3o2)cc1, which IC50 [1] is on record?
Answer: 4.3 µM
